How the values were obtained:
subject = experiment: Net gain in lines of visual acuity at 45 centimeters after binocular instillation of aceclidine enantiomer solutions (Example 1, prophetic); format: in vivo; conditions: for Net gain in lines of visual acuity versus baseline, monocularly: first figure of cell; for Net gain in lines of visual acuity versus baseline, binocularly: second figure of cell
Experimental: Solutions containing scalemic mixtures of or enantiomerically pure aceclidine in 1.50% w/v polysorbate 80, 1.2% w/v hydroxypropylmethyl cellulose, 0.1% w/v disodium ethylenediaminetetraacetic acid, 0.1% w/v sorbate in 0.9% w/v sodium chloride buffered saline at a pH of 6.5 were instilled, binocularly in a subject. The subject's visual acuity at 45 centimeters was then tested both monocularly and binocularly. Net gain in lines of visual acuity versus baseline monocularly/binocularly are shown in Table 1 below at 1, 2 and 5 hours post-instillation.

accommodation = conditions: cited from earlier work

Compound	Net gain in lines of visual acuity versus baseline, monocularly (subject; 1 hour post-instillation)	Net gain in lines of visual acuity versus baseline, binocularly (subject; 1 hour post-instillation)	Net gain in lines of visual acuity versus baseline, monocularly (subject; 2 hours post-instillation)	Net gain in lines of visual acuity versus baseline, binocularly (subject; 2 hours post-instillation)	Net gain in lines of visual acuity versus baseline, monocularly (subject; 5 hours post-instillation)	Net gain in lines of visual acuity versus baseline, binocularly (subject; 5 hours post-instillation)	induced accommodation documented in presbyopes (accommodation; 2% concentration, presbyopes)	induced accommodation (accommodation; as little as, with a range of variability)
CC(=O)OC1CN2CCC1CC2 (centres unmarked) [50/50, aceclidine]	2.00 lines	3.00 lines	1.50 lines	2.50 lines	1.00 lines	1.50 lines	–	–
aceclidine [62.5/22.5]	1.40 lines	3.20 lines	1.70 lines	2.70 lines	1.20 lines	1.60 lines	–	–
aceclidine [25/75]	1.50/1.50 lines	1.50/1.50 lines	0.75 lines	1.25 lines	0.50 lines	1.00 lines	–	–
CC[C@@H]1C(=O)OC[C@@H]1Cc1cncn1C [Pilocarpine, pilocarpine]	–	–	–	–	–	–	≥ −5 D	–
CC(=O)OC1CN2CCC1CC2 (centres unmarked) [100/0, aceclidine]	2.00 lines	3.50 lines	1.75 lines	3.00 lines	1.50 lines	2.50 lines	–	–
aceclidine [87.5/12.5]	1.75 lines	3.25 lines	1.40 lines	2.90 lines	0.90 lines	2.25 lines	–	–
CC(=O)OC1CN2CCC1CC2 (centres unmarked) [aceclidine]	–	–	–	–	–	–	–	−0.37 D
aceclidine [75/25]	1.50 lines	2.50 lines	1.20 lines	2.80 lines	0.70 lines	2.00 lines	–	–

Reference: patent US20200061036A1, “ACECLIDINE ISOMERS AND SCALEMIC MIXTURES THEREOF FOR THE TREATMENT OF PRESBYOPIA” (Presbyopia Therapies, LLC, priority 2018, published 2020)
